Assay results taken from patent US12006294B2, “Therapeutic compounds” (REGENTS OF THE UNIVERSITY OF MINNESOTA, priority 2017, dated 2024).
Where a name gives a salt, the structure may show the parent alone. Read-outs that look alike come from different tables or passages of the source.

Key:
Hela Cells = assay: Cellular ER stress model (tunicamycin, WST-8 cell viability); conditions: for AntiERStress (% Cell Survival): HeLa cells, tunicamycin 48 hours, WST-8; for % Cell Survival Cmpd(2.5 μM) + Tuni: compound 2.5 μM + tunicamycin, WST-8 viability 48 hours after tunicamycin treatment
CAD5 cells = assay type: cell-based
[1] = Homo sapiens, HeLa, 48 h, read-out: % Cell Survival Cmpd(2.5 μM) + Tuni, Hela cells, compound 2.5 μM + tunicamycin, WST-8 viability 48 hours after tunicamycin treatment
[2] = Homo sapiens, HeLa, 48 h, read-out: Compounds ERS (vs Tn), ERS activity vs Tuni = % cell survival (compound)/% cell survival (tunicamycin), compound 2.5 μM

`N=C(N)N/N=C/c1c(Cl)cc(O)cc1Cl` [BC1-167-1, (E)-2-(2,6-dichloro-4-hydroxybenzylidene)hydrazinecarboximidamide acetate] was tested, and the “AntiERStress (% Cell Survival)” value (Hela Cells) was 45.93 % Cell Survival, the 1/Elispot (CAD5 cells) was 0.87 and the “AntiPrion (Number of Cells × 10^4)” value (CAD5 cells) was 9 × 10^4. For the same molecule, the “EliSpot (Spots/10000 Cells)” value (CAD5 cells) was 1500 Spots/10000 Cells and the “Elispot (vs PC)” value (CAD5 cells) was 1.15.

With `N=C(N)N/N=C\c1c(Cl)cc(O)cc1Cl` [BC1-171-1] the “AntiERStress (% Cell Survival)” value (Hela Cells) was 52.54 % Cell Survival, the 1/Elispot (CAD5 cells) was 1.00 and the “AntiPrion (Number of Cells × 10^4)” value (CAD5 cells) was 16 × 10^4. The “EliSpot (Spots/10000 Cells)” value (CAD5 cells) was 1300 Spots/10000 Cells and the “Elispot (vs PC)” value (CAD5 cells) was 1.00.

For `Clc1cc(Cl)cc(NC2=NCCN2)c1` [BC1-242-2, N-(3,5-dichlorophenyl)-4,5-dihydro-1H-imidazol-2-amine], the “AntiERStress (% Cell Survival)” value (Hela Cells) was 57.56 % Cell Survival, the 1/Elispot (CAD5 cells) was 1.86 and the “AntiPrion (Number of Cells × 10^4)” value (CAD5 cells) was 50 × 10^4. For the same molecule, the “EliSpot (Spots/10000 Cells)” value (CAD5 cells) was 700 Spots/10000 Cells and the “Elispot (vs PC)” value (CAD5 cells) was 0.54.

For `N=C(N)NCCc1c(Cl)cccc1Cl` [BC1-252-2, 1-(2,6-dichlorophenethyl)guanidine], the “AntiERStress (% Cell Survival)” value (Hela Cells) was 49.49 % Cell Survival, the 1/Elispot (CAD5 cells) was 0.72 and the “AntiPrion (Number of Cells × 10^4)” value (CAD5 cells) was 8 × 10^4. For the same molecule, the “EliSpot (Spots/10000 Cells)” value (CAD5 cells) was 1800 Spots/10000 Cells and the “Elispot (vs PC)” value (CAD5 cells) was 1.38.

`N=C(N)Nc1c(Cl)cccc1Cl` [BC1-256-2, 1-(2,6-dichlorophenyl)guanidine] was tested, and the “AntiERStress (% Cell Survival)” value (Hela Cells) was 54.77 % Cell Survival, the 1/Elispot (CAD5 cells) was 1.44 and the “AntiPrion (Number of Cells × 10^4)” value (CAD5 cells) was 32 × 10^4. The “EliSpot (Spots/10000 Cells)” value (CAD5 cells) was 900 Spots/10000 Cells and the “Elispot (vs PC)” value (CAD5 cells) was 0.69.

`C/C(=N\NC(=N)N)c1c(Cl)cccc1Cl` [BC1-259-2, (E)-2-(1-(2,6-dichlorophenyl)ethylidene)hydrazinecarboximidamide] was tested, and the “AntiERStress (% Cell Survival)” value (Hela Cells) was 62.87 % Cell Survival, the 1/Elispot (CAD5 cells) was 1.63 and the “AntiPrion (Number of Cells × 10^4)” value (CAD5 cells) was 26 × 10^4. For the same molecule, the “EliSpot (Spots/10000 Cells)” value (CAD5 cells) was 800 Spots/10000 Cells and the “Elispot (vs PC)” value (CAD5 cells) was 0.62.

For `Cl.NC(=O)N/N=C/c1c(Cl)cccc1Cl` [BC1-262-1, (E)-2-(2,6-dichlorobenzylidene)hydrazinecarboxamide hydrochloride], the “AntiERStress (% Cell Survival)” value (Hela Cells) was 64.7 % Cell Survival, the 1/Elispot (CAD5 cells) was 1.86 and the “AntiPrion (Number of Cells × 10^4)” value (CAD5 cells) was 53 × 10^4. The “EliSpot (Spots/10000 Cells)” value (CAD5 cells) was 700 Spots/10000 Cells and the “Elispot (vs PC)” value (CAD5 cells) was 0.54.

`N=C(N)Nn1ccnc1-c1c(Cl)cccc1Cl` [BC1-267-2, 1-(2-(2,6-dichlorophenyl)-1H-imidazol-1-yl)guanidine] was tested, and the “AntiERStress (% Cell Survival)” value (Hela Cells) was 64.26 % Cell Survival, the viability at 2.5 µM (Hela Cells; [1]) was 42.3% and the viability at 2.5 µM (Hela Cells; [2]) was 102%. The 1/Elispot (CAD5 cells) was 1.00, the “AntiPrion (Number of Cells × 10^4)” value (CAD5 cells) was 18 × 10^4 and the “EliSpot (Spots/10000 Cells)” value (CAD5 cells) was 1300 Spots/10000 Cells. For the same molecule, the “Elispot (vs PC)” value (CAD5 cells) was 1.00.

In the case of `N=C(N)N/N=C/c1c(Cl)ccc(Cl)c1Cl` [BC1-282-1, (E)-2-(2,3,6-trichlorobenzylidene)hydrazinecarboximidamide acetate], the “AntiERStress (% Cell Survival)” value (Hela Cells) is reported as 101.2576 % Cell Survival, the viability at 2.5 µM (Hela Cells; [1]) is reported as 71.6% and the viability at 2.5 µM (Hela Cells; [2]) is reported as 172%. The 1/Elispot (CAD5 cells) was 0.76, the “AntiPrion (Number of Cells × 10^4)” value (CAD5 cells) was 10 × 10^4 and the “EliSpot (Spots/10000 Cells)” value (CAD5 cells) was 1700 Spots/10000 Cells. For the same molecule, the “Elispot (vs PC)” value (CAD5 cells) was 1.31.

In the case of `N=C(N)N/N=C/c1ccccc1` [BC1-295-1, (E)-2-benzylidenehydrazinecarboximidamide acetate], the “AntiERStress (% Cell Survival)” value (Hela Cells) is reported as 60.58 % Cell Survival, the 1/Elispot (CAD5 cells) is reported as 2.17 and the “AntiPrion (Number of Cells × 10^4)” value (CAD5 cells) is reported as 37 × 10^4. The “EliSpot (Spots/10000 Cells)” value (CAD5 cells) was 600 Spots/10000 Cells and the “Elispot (vs PC)” value (CAD5 cells) was 0.46.

In the case of `N=C(N)N/N=C/c1ccccc1Br` [BC1-297-1, (E)-2-(2-bromobenzylidene)hydrazinecarboximidamide acetate], the “AntiERStress (% Cell Survival)” value (Hela Cells) is reported as 90.49 % Cell Survival, the 1/Elispot (CAD5 cells) is reported as 0.93 and the “AntiPrion (Number of Cells × 10^4)” value (CAD5 cells) is reported as 8 × 10^4. The “EliSpot (Spots/10000 Cells)” value (CAD5 cells) was 1400 Spots/10000 Cells and the “Elispot (vs PC)” value (CAD5 cells) was 1.08.

For `Cc1ccccc1/C=N/NC(=N)N` [BC2-3-1, (E)-2-(2-methylbenzylidene)hydrazinecarboximidamide acetate], the “AntiERStress (% Cell Survival)” value (Hela Cells) was 82.07 % Cell Survival, the 1/Elispot (CAD5 cells) was 1.86 and the “AntiPrion (Number of Cells × 10^4)” value (CAD5 cells) was 28 × 10^4. For the same molecule, the “EliSpot (Spots/10000 Cells)” value (CAD5 cells) was 700 Spots/10000 Cells and the “Elispot (vs PC)” value (CAD5 cells) was 0.54.

For `N=C(N)N/N=C/c1c(F)cccc1Cl` [BC2-5-1, (E)-2-(2-chloro-6-fluorobenzylidene)hydrazinecarboximidamide acetate], the “AntiERStress (% Cell Survival)” value (Hela Cells) was 104.9813 % Cell Survival, the 1/Elispot (CAD5 cells) was 1.63 and the “AntiPrion (Number of Cells × 10^4)” value (CAD5 cells) was 34 × 10^4. For the same molecule, the “EliSpot (Spots/10000 Cells)” value (CAD5 cells) was 800 Spots/10000 Cells and the “Elispot (vs PC)” value (CAD5 cells) was 0.62.

`N=C(N)N/N=C/c1cccc(Cl)c1Cl` [BC2-7-1, (E)-2-(2,3-dichlorobenzylidene)hydrazinecarboximidamide acetate] was tested, and the “AntiERStress (% Cell Survival)” value (Hela Cells) was 100.0136 % Cell Survival, the viability at 2.5 µM (Hela Cells; [1]) was 66.7% and the viability at 2.5 µM (Hela Cells; [2]) was 160%. The 1/Elispot (CAD5 cells) was 1.00, the “AntiPrion (Number of Cells × 10^4)” value (CAD5 cells) was 3 × 10^4 and the “EliSpot (Spots/10000 Cells)” value (CAD5 cells) was 1300 Spots/10000 Cells. For the same molecule, the “Elispot (vs PC)” value (CAD5 cells) was 1.00.

For `N=C(N)N/N=C/c1cccc(Cl)c1` [BC2-9-1, (E)-2-(3-chlorobenzylidene)hydrazinecarboximidamide acetate], the “AntiERStress (% Cell Survival)” value (Hela Cells) was 93.32 % Cell Survival, the 1/Elispot (CAD5 cells) was 1.44 and the “AntiPrion (Number of Cells × 10^4)” value (CAD5 cells) was 33 × 10^4. The “EliSpot (Spots/10000 Cells)” value (CAD5 cells) was 900 Spots/10000 Cells and the “Elispot (vs PC)” value (CAD5 cells) was 0.69.

Work on `NC(=O)N/N=C/c1ccccc1Cl` [JM3-223-2, (E)-2-(2-chlorobenzylidene)hydrazine-1-carboxamide hydrochloride] yielded a viability at 2.5 µM (Hela Cells; [1]) of 28% and a viability at 2.5 µM (Hela Cells; [2]) of 118%.

`NC(=O)N/N=C/c1ccccc1I` [JM3-225-2, (E)-2-(2-iodobenzylidene)hydrazine-1-carboxamide hydrochloride] gave a viability at 2.5 µM (Hela Cells; [1]) of 22.8% and a viability at 2.5 µM (Hela Cells; [2]) of 96%.

For `N=C(N)NNCc1c(Cl)cccc1Cl` [JM3-227-2, 2-(2,6-dichlorobenzyl)hydrazine-1-carboximidamide], the “% Cell Survival Cmpd(2.5 μM) + Tuni” value (Hela Cells; Hela cells) was 27.92%.

In the case of `N=C(N)N/N=C/Cc1c(Cl)cccc1Cl` [JM3-239-2, (E)-2-(2-(2,6-dichlorophenyl)ethylidene)hydrazine-1-carboximidamide acetate], the viability at 2.5 µM (Hela Cells; [1]) is reported as 28.1% and the viability at 2.5 µM (Hela Cells; [2]) is reported as 119%.

Molecule `N=C1NCCCN1/N=C/c1c(Cl)cccc1Cl` [JM3-255-2, (E)-1-((2,6-dichlorobenzylidene)amino)tetrahydropyrimidin-2(1H)-imine hydrobromide] has a viability at 2.5 µM (Hela Cells; [1]) of 24.5% and a viability at 2.5 µM (Hela Cells; [2]) of 104%.

In the case of `CN(/N=C/c1c(Cl)cccc1Cl)C(=N)N` [JM3-257-2, (E)-2-(2,6-dichlorobenzylidene)-1-methylhydrazine-1-carboximidamide hydroiodide], the viability at 2.5 µM (Hela Cells; [1]) is reported as 31.2% and the viability at 2.5 µM (Hela Cells; [2]) is reported as 132%.

In the case of `CC(Oc1c(Cl)cccc1Cl)C1=NCCN1` (stereo not shown) [Lofexidine Hcl], the viability at 2.5 µM (Hela Cells; [1]) is reported as 35.4% and the viability at 2.5 µM (Hela Cells; [2]) is reported as 107%.

In the case of `O=C(/C=C/c1ccccc1)NC(NC(=S)Nc1ccc(Cl)cc1)C(Cl)(Cl)Cl` (stereo not shown) [Sal003], the “Compounds ERS (vs Tn)” value (Hela Cells; ERS activity vs Tuni = % cell survival (compound)/% cell survival (tunicamycin), compound 2.5 μM) is reported as 1.03 and the “% Cell Survival Cmpd(2.5 μM) + Tuni” value (Hela Cells; Hela cells) is reported as 33.17%.

`O=C(/C=C/c1ccccc1)NC(NC(=S)Nc1cccc2cccnc12)C(Cl)(Cl)Cl` (stereo not shown) [Salubrinal, reference compound] was tested, and the “% Cell Survival Cmpd + Tuni” value (Hela Cells; Hela cells, Salubrinal 25 μM + tunicamycin, WST-8 48 hours) was 38.46%, the viability at 2.5 µM (Hela Cells; [1]) was 23.8% and the viability at 25 µM (Hela Cells; Homo sapiens, HeLa, 48 h, read-out: Compounds ERS (vs Tn), % cell survival (compound)/% cell survival (tunicamycin), Salubrinal 25 μM) was 116%. For the same molecule, the viability at 2.5 µM (Hela Cells; [2]) was 103%.
